# Marks after values point to notes of the source that are not given here.
# Test: Phase I multiple ascending-dose study: safety and tolerability (treatment-emergent adverse events)
# Assay type: in vivo, human (healthy volunteers)
# Protocol: A single-center, randomized, double-blind, placebo-controlled phase I study (NCT03554993) with a MAD component was performed in the UK between May 2018 and July 2019. Thirty-seven healthy volunteers of any race, ethnicity, or sex were enrolled. The inclusion criteria were 18 to 55 years of age inclusive, body mass index 18 to 33 kg/m^2, and physical examination by the investigator without clinically significant findings. Subjects were excluded if any clinically significant medical history, laboratory abnormality, psychiatric illness, or other condition existed that would place the subject at unacceptable risk by participating in the study. Pregnancy prevention guidance was provided as per Clinical Trial Facilitation Group recommendations. Subjects were randomly assigned to daily oral doses of CC-99677 or placebo. Subjects were dosed daily for 14 days. […] Both the investigator and subjects were blinded to the treatment arm. Safety assessments, including physical examinations, clinical laboratory tests, and collection of adverse events (AEs) were performed and graded using MedDRA version 22.0 and the US Food and Drug Administration (FDA) Toxicity Grading Scale for Healthy Adult and Adolescent Volunteers. The primary outcome of this trial was the safety and tolerability of multiple daily doses of CC-99677.
compound,measurement,setting,value
CCOCc1cnc(Cl)nc1Oc1ccc2c(ccc3sc4c(c32)NC[C@@H](C)NC4=O)n1 [CC-99677],TEAE: Investigations,"60 mg daily, 14 days (n = 6)",0 n (%)
same,TEAE: Muscle strain,"60 mg daily, 14 days (n = 6)",0 n (%)
same,TEAE: Musculoskeletal and connective tissue disorders,"60 mg daily, 14 days (n = 6)",0 n (%)
same,TEAE: Musculoskeletal pain,"60 mg daily, 14 days (n = 6)",0 n (%)
same,TEAE: Myalgia,"60 mg daily, 14 days (n = 6)",0 n (%)
same,TEAE: Nasopharyngitis,"60 mg daily, 14 days (n = 6)",0 n (%)
same,TEAE: Nausea,"60 mg daily, 14 days (n = 6)",0 n (%)
same,TEAE: Nervous system disorders,"60 mg daily, 14 days (n = 6)",1 (16.7) n (%)
same,TEAE: Oropharyngeal pain,"60 mg daily, 14 days (n = 6)",0 n (%)
same,TEAE: Psychiatric disorders,"60 mg daily, 14 days (n = 6)",0 n (%)
same,TEAE: Rash pustular,"60 mg daily, 14 days (n = 6)",0 n (%)
same,TEAE: Rectal hemorrhage,"60 mg daily, 14 days (n = 6)",0 n (%)
same,TEAE: Reproductive system and breast disorders,"60 mg daily, 14 days (n = 6)",0 n (%)
same,"TEAE: Respiratory, thoracic, and mediastinal disorders","60 mg daily, 14 days (n = 6)",0 n (%)
same,TEAE: Sensation of foreign body,"60 mg daily, 14 days (n = 6)",0 n (%)
same,TEAE: Vascular disorders,"60 mg daily, 14 days (n = 6)",0 n (%)
same,TEAE: Vessel puncture site pain,"60 mg daily, 14 days (n = 6)",0 n (%)
same,TEAE: Vessel puncture site reaction,"60 mg daily, 14 days (n = 6)",0 n (%)
same,Subjects with ≥ 1 treatment-emergent AE,"120 mg daily, 14 days (n = 6)",3 (50.0) n (%)
same,TEAE: Abdominal pain,"120 mg daily, 14 days (n = 6)",1 (16.7) n (%)
same,TEAE: Alanine aminotransferase increased,"120 mg daily, 14 days (n = 6)",1 (16.7) n (%)
same,TEAE: Aspartate aminotransferase increased,"120 mg daily, 14 days (n = 6)",0 n (%)
same,TEAE: Back pain,"120 mg daily, 14 days (n = 6)",0 n (%)
same,TEAE: Blood creatine phosphokinase increased,"120 mg daily, 14 days (n = 6)",0 n (%)
same,TEAE: Catheter site related reaction,"120 mg daily, 14 days (n = 6)",0 n (%)
same,TEAE: Chapped lips,"120 mg daily, 14 days (n = 6)",0 n (%)
same,TEAE: Constipation,"120 mg daily, 14 days (n = 6)",0 n (%)
same,TEAE: Diarrhea,"120 mg daily, 14 days (n = 6)",1 (16.7) n (%)
same,TEAE: Dizziness,"120 mg daily, 14 days (n = 6)",0 n (%)
same,TEAE: Dysmenorrhea,"120 mg daily, 14 days (n = 6)",0 n (%)
same,TEAE: Dyspepsia,"120 mg daily, 14 days (n = 6)",0 n (%)
same,TEAE: Ear and labyrinth disorders,"120 mg daily, 14 days (n = 6)",0 n (%)
same,TEAE: Ear pain,"120 mg daily, 14 days (n = 6)",0 n (%)
same,TEAE: Flushing,"120 mg daily, 14 days (n = 6)",0 n (%)
same,TEAE: Gastrointestinal disorders,"120 mg daily, 14 days (n = 6)",1 (16.7) n (%)
same,TEAE: General disorders and administration site conditions,"120 mg daily, 14 days (n = 6)",0 n (%)
same,TEAE: Headache,"120 mg daily, 14 days (n = 6)",1 (16.7) n (%)
same,TEAE: Hot flush,"120 mg daily, 14 days (n = 6)",0 n (%)
same,TEAE: Infections and infestations,"120 mg daily, 14 days (n = 6)",0 n (%)
same,"TEAE: Injury, poisoning, and procedural complications","120 mg daily, 14 days (n = 6)",0 n (%)
same,TEAE: Insomnia,"120 mg daily, 14 days (n = 6)",0 n (%)
same,TEAE: Investigations,"120 mg daily, 14 days (n = 6)",1 (16.7) n (%)
same,TEAE: Muscle strain,"120 mg daily, 14 days (n = 6)",0 n (%)
same,TEAE: Musculoskeletal and connective tissue disorders,"120 mg daily, 14 days (n = 6)",1 (16.7) n (%)
same,TEAE: Musculoskeletal pain,"120 mg daily, 14 days (n = 6)",1 (16.7) n (%)
same,TEAE: Myalgia,"120 mg daily, 14 days (n = 6)",0 n (%)
same,TEAE: Nasopharyngitis,"120 mg daily, 14 days (n = 6)",0 n (%)
same,TEAE: Nausea,"120 mg daily, 14 days (n = 6)",0 n (%)
same,TEAE: Nervous system disorders,"120 mg daily, 14 days (n = 6)",1 (16.7) n (%)
same,TEAE: Oropharyngeal pain,"120 mg daily, 14 days (n = 6)",1 (16.7) n (%)
same,TEAE: Psychiatric disorders,"120 mg daily, 14 days (n = 6)",0 n (%)
same,TEAE: Rash pustular,"120 mg daily, 14 days (n = 6)",0 n (%)
same,TEAE: Rectal hemorrhage,"120 mg daily, 14 days (n = 6)",0 n (%)
same,TEAE: Reproductive system and breast disorders,"120 mg daily, 14 days (n = 6)",0 n (%)
same,"TEAE: Respiratory, thoracic, and mediastinal disorders","120 mg daily, 14 days (n = 6)",1 (16.7) n (%)
same,TEAE: Sensation of foreign body,"120 mg daily, 14 days (n = 6)",0 n (%)
same,TEAE: Vascular disorders,"120 mg daily, 14 days (n = 6)",0 n (%)
same,TEAE: Vessel puncture site pain,"120 mg daily, 14 days (n = 6)",0 n (%)
same,TEAE: Vessel puncture site reaction,"120 mg daily, 14 days (n = 6)",0 n (%)
same,Subjects with ≥ 1 treatment-emergent AE,"150 mg daily, 14 days (n = 5)",2 (40.0) n (%)
same,TEAE: Abdominal pain,"150 mg daily, 14 days (n = 5)",0 n (%)
same,TEAE: Alanine aminotransferase increased,"150 mg daily, 14 days (n = 5)",0 n (%)
same,TEAE: Back pain,"150 mg daily, 14 days (n = 5)",0 n (%)
same,TEAE: Catheter site related reaction,"150 mg daily, 14 days (n = 5)",0 n (%)
same,TEAE: Chapped lips,"150 mg daily, 14 days (n = 5)",0 n (%)
same,TEAE: Constipation,"150 mg daily, 14 days (n = 5)",0 n (%)
same,TEAE: Diarrhea,"150 mg daily, 14 days (n = 5)",0 n (%)
same,TEAE: Dizziness,"150 mg daily, 14 days (n = 5)",0 n (%)
same,TEAE: Dysmenorrhea,"150 mg daily, 14 days (n = 5)",1 (20.0) n (%)
same,TEAE: Dyspepsia,"150 mg daily, 14 days (n = 5)",0 n (%)
same,TEAE: Ear and labyrinth disorders,"150 mg daily, 14 days (n = 5)",0 n (%)
same,TEAE: Ear pain,"150 mg daily, 14 days (n = 5)",0 n (%)
same,TEAE: Flushing,"150 mg daily, 14 days (n = 5)",1 (20.0) n (%)
same,TEAE: Gastrointestinal disorders,"150 mg daily, 14 days (n = 5)",0 n (%)
same,TEAE: General disorders and administration site conditions,"150 mg daily, 14 days (n = 5)",0 n (%)
same,TEAE: Headache,"150 mg daily, 14 days (n = 5)",0 n (%)
same,TEAE: Hot flush,"150 mg daily, 14 days (n = 5)",0 n (%)
same,TEAE: Infections and infestations,"150 mg daily, 14 days (n = 5)",0 n (%)
same,"TEAE: Injury, poisoning, and procedural complications","150 mg daily, 14 days (n = 5)",0 n (%)
same,TEAE: Insomnia,"150 mg daily, 14 days (n = 5)",0 n (%)
same,TEAE: Investigations,"150 mg daily, 14 days (n = 5)",1 (20.0) n (%)
same,TEAE: Muscle strain,"150 mg daily, 14 days (n = 5)",0 n (%)
same,TEAE: Musculoskeletal and connective tissue disorders,"150 mg daily, 14 days (n = 5)",0 n (%)
same,TEAE: Musculoskeletal pain,"150 mg daily, 14 days (n = 5)",0 n (%)
same,TEAE: Myalgia,"150 mg daily, 14 days (n = 5)",0 n (%)
same,TEAE: Nasopharyngitis,"150 mg daily, 14 days (n = 5)",0 n (%)
same,TEAE: Nausea,"150 mg daily, 14 days (n = 5)",0 n (%)
same,TEAE: Nervous system disorders,"150 mg daily, 14 days (n = 5)",0 n (%)
same,TEAE: Oropharyngeal pain,"150 mg daily, 14 days (n = 5)",0 n (%)
same,TEAE: Psychiatric disorders,"150 mg daily, 14 days (n = 5)",0 n (%)
same,TEAE: Rash pustular,"150 mg daily, 14 days (n = 5)",0 n (%)
same,TEAE: Rectal hemorrhage,"150 mg daily, 14 days (n = 5)",0 n (%)
same,TEAE: Reproductive system and breast disorders,"150 mg daily, 14 days (n = 5)",1 (20.0) n (%)
same,"TEAE: Respiratory, thoracic, and mediastinal disorders","150 mg daily, 14 days (n = 5)",0 n (%)
same,TEAE: Sensation of foreign body,"150 mg daily, 14 days (n = 5)",0 n (%)
same,TEAE: Vascular disorders,"150 mg daily, 14 days (n = 5)",1 (20.0) n (%)
same,TEAE: Vessel puncture site pain,"150 mg daily, 14 days (n = 5)",0 n (%)
same,TEAE: Vessel puncture site reaction,"150 mg daily, 14 days (n = 5)",0 n (%)
same,TEAE: Blood creatine phosphokinase increased,"150 mg daily, 14 days (n = 5), occurred 14 days after the end of dosing following greater-than-usual physical activity, same individual as AST increase",1 (20.0)^a n (%)
same,TEAE: Aspartate aminotransferase increased,"150 mg daily, 14 days (n = 5), occurred 14 days after the end of dosing following greater-than-usual physical activity, same individual as CPK increase",1 (20.0)^a n (%)
same,Dose dependency of the incidence of TEAEs,10 to 150 mg,no apparent CC-99677 dose dependency
same,Serious treatment-emergent adverse events,"14 consecutive days of dosing, 5 dose-level cohorts 10 to 150 mg",no serious treatment-emergent adverse events (TEAEs) were observed
same,AEs not suspected to be related to CC-99677 (blinded investigator assessment),MAD study,69%
same,Discontinuation because of safety reasons,MAD study,No subject discontinued
same,Severity grade of TEAEs (FDA toxicity grading scale),"MAD study, 10 to 150 mg daily, 14 days",mild (grade 1)
same,Subjects with TEAEs,"all subjects receiving CC-99677 (n = 28), placebo 77.8%",46.4%
